# “And” between values parts separate entries of the source, which are not always exact repeats. Identical values can stand only once.
# Columns and labels:
# Format in all cases: in vivo
# Cyperus serotinus = test: Pre-emergence herbicidal action against weed plants; conditions: application rate 1280 g/ha, visual assessment after 3 weeks
# Excerpt: (§1) Seeds of monocotyledonous and dicotyledonous weed plants and crop plants are placed in wood-fiber pots in sandy loam and covered with soil. The compounds according to the invention, formulated in the form of wettable powders (WP) or as emulsion concentrates (EC), are then applied as aqueous suspension or emulsion at a water application rate of 600 to 800 l/ha (converted) with the addition of 0.2% of wetting agent to the surface of the covering soil. After the treatment, the pots are placed in a greenhouse and kept under good growth conditions for the test plants. The damage to the test plants is assessed visually after a test period of 3 weeks by comparison with untreated controls (herbicidal activity in percent (%): 100% action=the plants have died, 0% action=like control plants). […] The compounds Nos. I-a-38 and I-a-39 each show, at an application rate of 1280 g/ha, an of at least 80% against Echinochloa crus galli and Veronica persica and at the same time no damage in corn and oilseed rape.
# Alopecurus myosuroides = test: as above; conditions: application rate 1280 g/ha, visual assessment after 3 weeks
# Excerpt: as §1
# wheat [1] = test: Pre-emergence test, damage to crop plants; conditions: application rate 1280 g/ha, after 3 weeks
# Excerpt: as §1
# rice [2] = test: Pre-emergence test, damage to crop plants; conditions: application rate 1280 g/ha, after 3 weeks
# Excerpt: as §1
# [3] = test system: greenhouse red spider mite (Tetranychus urticae); test: Tetranychus test, OP-resistant (TETRUR spray treatment); conditions: application rate 500 g/ha, bean leaf discs sprayed, after 6 days
# Protocol: (§2) • Solvent: 78.0 parts by weight of acetone • 1.5 parts by weight of dimethylformamide • Emulsifier: 0.5 parts by weight of alkylaryl polyglycol ether
# To produce a suitable preparation of active compound, 1 part by weight of active compound is mixed with the stated amounts of solvent and emulsifier, and the concentrate is diluted with emulsifier-containing water to the desired concentration. Discs of bean leaves (Phaseolus vulgaris) infested by all stages of the greenhouse red spider mite (Tetranychus urticae) are sprayed with an active compound formulation of the desired concentration. After 6 days, the activity in % is determined. 100% means that all of the spider mites have been killed; 0% means that none of the spider mites have been killed.
# [4] = test system: larvae of the mustard beetle (Phaedon cochleariae); test: Phaedon test (PHAECO spray treatment); conditions: application rate 500 g/ha, Chinese cabbage leaf discs sprayed, after 7 days
# Protocol: • Solvent: 78.0 parts by weight of acetone • 1.5 parts by weight of dimethylformamide • Emulsifier: 0.5 part by weight of alkylaryl polyglycol ether
# To produce a suitable preparation of active compound, 1 part by weight of active compound is mixed with the stated amounts of solvent and emulsifier, and the concentrate is diluted with emulsifier-containing water to the desired concentration. Discs of Chinese cabbage leaves (Brassica pekinensis) are sprayed with an active compound formulation of the desired concentration and, after drying, populated with larvae of the mustard beetle (Phaedon cochleariae). After 7 days, the activity in % is determined. 100% means that all of the beetle larvae have been killed; 0% means that none of the beetle larvae have been killed. In this test, for example, the following compounds of the Preparation Examples show, at an application rate of 500 g/ha, an activity of 100%: I-a-29, I-a-40.
# Polygonum convolvulus = test: Pre-emergence herbicidal action against weed plants; conditions: application rate 1280 g/ha, visual assessment after 3 weeks
# Excerpt: as §1
# oilseed rape [5] = test: Pre-emergence test, damage to crop plants; conditions: application rate 1280 g/ha, after 3 weeks
# Excerpt: as §1
# corn [6] = test: Pre-emergence test, damage to crop plants; conditions: application rate 1280 g/ha, after 3 weeks
# Excerpt: as §1
# [7] = test system: caterpillars of the armyworm (Spodoptera frugiperda); test: Spodoptera frugiperda test (SPODFR spray treatment); conditions: application rate 500 g/ha, corn leaf disks sprayed, after 7 days
# Protocol: as §2
# To produce a suitable preparation of active compound, 1 part by weight of active compound is mixed with the stated amounts of solvent and emulsifier, and the concentrate is diluted with emulsifier-containing water to the desired concentration. Disks of corn leaves (Zea mays) are sprayed with an active compound preparation of the desired concentration and, after drying, populated with caterpillars of the armyworm (Spodoptera frugiperda). After 7 days, the activity in % is determined. 100% means that all of the caterpillars have been killed; 0% means that none of the caterpillars have been killed. In this test, for example, the following compounds of the Preparation Examples show, at an application rate of 500 g/ha, an activity of 85%: […], I-a-40. In this test, for example, the following compounds of the Preparation Examples show, at an application rate of 500 g/ha, an activity of 100%: I-a-38, I-a-39.
# Lolium multiflorum [8] = test: Post-emergence herbicidal action against weed plants; conditions: application rate 320 g/ha, visual assessment after about 3 weeks
# Protocol: (§3) Seeds of monocotyledonous and dicotyledonous weed and crop plants are placed in sandy loam in wood-fiber pots, covered with soil and cultivated in a greenhouse under good growth conditions. 2 to 3 weeks after sowing, the test plants are treated at the one-leaf stage. The compounds according to the invention, formulated in the form of wettable powders (WP) or as emulsion concentrates (EC), are then sprayed as aqueous suspension or emulsion at a water application rate of 600 to 800 l/ha (converted) with the addition of 0.2% of wetting agent onto the green parts of the plants. After the test plants have been left to stand in the greenhouse under optimal growth conditions for about 3 weeks, the action of the formulations is assessed visually in comparison to untreated controls (herbicidal action in percent (%): 100% activity=the plants have died, 0% activity=like control plants). Here, the compounds Nos. I-a-39 and I-a-42, for example, show, at an application rate of 320 g/ha, an activity of at least 80% against Setaria viridis and at the same time no damage in corn and oilseed rape.
# rice [9] = test: Post-emergence test, damage to crop plants; conditions: after about 3 weeks
# Protocol: as §3
# corn [10] = test: Post-emergence test, damage to crop plants; conditions: after about 3 weeks
# Protocol: as §3
# Setaria viridis = test: Pre-emergence herbicidal action against weed plants; conditions: application rate 1280 g/ha, visual assessment after 3 weeks
# Excerpt: as §1
# Lolium multiflorum [11] = test: as above; conditions: application rate 1280 g/ha, visual assessment after 3 weeks
# Excerpt: as §1
# wheat [12] = test: Post-emergence test, damage to crop plants; conditions: application rate 80 g/ha, after about 3 weeks
# Protocol: as §3
# oilseed rape [13] = test: Post-emergence test, damage to crop plants; conditions: application rate 320 g/ha, after about 3 weeks
# Protocol: as §3
compound,measurement,setting,value
Cn1c(=O)c(-c2c(F)ccc(-c3ccc(Cl)cc3Cl)c2Cl)c(O)c2scnc21 [I-a-19],herbicidal activity against Cyperus serotinus,Cyperus serotinus,at least 80%
same,herbicidal activity against Alopecurus myosuroides,Alopecurus myosuroides,at least 80%
same,damage in wheat,wheat [1],no damage
same,damage in rice,rice [2],no damage
C#CCn1c(=O)c(-c2cc(-c3ccc(Cl)cc3)ccc2Cl)c(O)c2scnc21 [I-a-37],activity in % (spider mites killed),[3],85% and 90%
C#CCn1c(=O)c(-c2c(Cl)cc(-c3ccc(Cl)cc3)cc2CC)c(O)c2scnc21 [I-a-29],activity in % (beetle larvae killed),[4],100%
O=c1c(-c2ccc(-c3ccc(Cl)cc3)cc2Cl)c(OCC(F)F)c2scnc2n1CC(F)F [I-a-32],herbicidal activity against Polygonum convolvulus,Polygonum convolvulus,at least 80%
same,damage in oilseed rape,oilseed rape [5],no damage
same,damage in corn,corn [6],no damage
"C#CCn1c(=O)c(-c2cc(-c3ccc(Cl)cc3)ccc2C)c(O)c2scnc21 [I-a-40, 6-(4′-chloro-4-methylbiphenyl-3-yl)-7-hydroxy-4-(prop-2-yn-1-yl)[1,3]thiazolo[4,5-b]pyridin-5(4H)-one]",activity in % (caterpillars killed),[7],85%
same,activity in % (beetle larvae killed),[4],100%
Cc1ccc(-c2ccc(Cl)cc2)cc1-c1c(O)c2scnc2n(C)c1=O [I-a-38],activity in % (caterpillars killed),[7],85% and 100%
same,herbicidal activity against Lolium multiflorum,Lolium multiflorum [8],at least 80%
same,damage in oilseed rape,oilseed rape [5],no damage
same,damage in corn,corn [6],no damage
same,activity in % (spider mites killed),[3],85%
same,damage in rice,rice [9]; application rate 320 g/ha,no damage
same,damage in corn,corn [10]; application rate 320 g/ha,no damage
"6-(4′-chloro-4-methylbiphenyl-3-yl)-5-oxo-4-(prop-2-yn-1-yl)-4,5-dihydro[1,3]thiazolo[4,5]pyridin-7-yl 2-methylpropanoate [I-a-42]",herbicidal activity against Setaria viridis,Setaria viridis,at least 80%
same,herbicidal activity against Lolium multiflorum,Lolium multiflorum [11],at least 80%
same,damage in wheat,wheat [1],no damage
same,damage in wheat,wheat [12],no damage
same,damage in oilseed rape,oilseed rape [13],no damage
same,damage in rice,rice [9]; application rate 80 g/ha,no damage
same,damage in corn,corn [10]; application rate 80 g/ha,no damage
same,damage in corn,corn [10]; application rate 320 g/ha,no damage
Cc1ccc(-c2ccc(Cl)cc2)cc1-c1c(O)c2scnc2n(CC(F)F)c1=O [I-a-39],activity in % (caterpillars killed),[7],85% and 100%
same,damage in oilseed rape,oilseed rape [5],no damage
same,damage in corn,corn [6],no damage
same,activity in % (spider mites killed),[3],85% and 90%
same,damage in oilseed rape,oilseed rape [13],no damage
same,damage in corn,corn [10]; application rate 320 g/ha,no damage

# — patent US9307767B2, “Herbicidally and insecticidally active thiazolopyridinones” (BAYER INTELLECTUAL PROPERTY GMBH, priority 2012, dated 2016)
